# Assay results as given in PubChem BioAssay AID1963842 (Molecular Pharmacology Branch, DTP, NCI, 2024).
# Tested on: 677734-321-R-J1-PDC complex spheroid viability
# Assay: Anticancer human tumor 677734-321-R-J1-PDC patient-derived soft tissue sarcoma cell line growth inhibition [POLQ]
# Details: for IC50: curve of first compound; for viability, T/C: stronger effect = lower value
# How it was run: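 Growth inhibition in 3D: complex spheroids (tumor PDC, HUVEC, MSC) treated with POLQ inhibitor combinations; where Cmax unknown, highest tested concentration 10 microM, except SN-38 at 1 microM.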
# [1] = second compound 0.0316 µM, first compound 0.0316 µM
# [2] = second compound 0.0316 µM, first compound 0.1 µM
# [3] = second compound 0.0316 µM, first compound 0.316 µM
# [4] = second compound 0.0316 µM, first compound 1 µM
# [5] = second compound 0.1 µM, first compound 0.0316 µM
# [6] = second compound 0.1 µM, first compound 0.1 µM
# [7] = second compound 0.1 µM, first compound 0.316 µM
# [8] = second compound 0.1 µM, first compound 1 µM
# [9] = second compound 0.316 µM, first compound 0.0316 µM
# [10] = second compound 0.316 µM, first compound 0.1 µM
# [11] = second compound 0.316 µM, first compound 0.316 µM
# [12] = second compound 0.316 µM, first compound 1 µM
# [13] = second compound 1 µM, first compound 0.0316 µM
# [14] = second compound 1 µM, first compound 0.1 µM
# [15] = second compound 1 µM, first compound 0.316 µM
# [16] = second compound 1 µM, first compound 1 µM
# [17] = second compound 3.16 µM, first compound 0.0316 µM
# [18] = second compound 3.16 µM, first compound 0.1 µM
# [19] = second compound 3.16 µM, first compound 0.316 µM
# [20] = second compound 3.16 µM, first compound 1 µM
# [21] = second compound 10 µM, first compound 0.0316 µM
# [22] = second compound 10 µM, first compound 0.1 µM
# [23] = second compound 10 µM, first compound 0.316 µM
# [24] = second compound 10 µM, first compound 1 µM
# [25] = second compound 0.0316 µM, first compound 0.00316 µM
# [26] = second compound 0.0316 µM, first compound 0.01 µM
# [27] = second compound 0.1 µM, first compound 0.00316 µM
# [28] = second compound 0.1 µM, first compound 0.01 µM
# [29] = second compound 0.316 µM, first compound 0.00316 µM
# [30] = second compound 0.316 µM, first compound 0.01 µM
# [31] = second compound 1 µM, first compound 0.00316 µM
# [32] = second compound 1 µM, first compound 0.01 µM
# [33] = second compound 3.16 µM, first compound 0.00316 µM
# [34] = second compound 3.16 µM, first compound 0.01 µM
# [35] = second compound 10 µM, first compound 0.00316 µM
# [36] = second compound 10 µM, first compound 0.01 µM
# 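Further: spheroids exposed to compounds for one week.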
# 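Wherever viability, T/C is given: 100% = vehicle DMSO treated spheroids.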
smiles,measurement,setting,value
COc1ccc([C@@H](O)c2cc(-c3ncnc4cc(N5CCOCC5)ccc34)c(F)cc2Cl)nn1 + Cc1cccc(N(C)C(=O)C2C(O)CCN2c2nc(C)cc(C(F)(F)F)c2C#N)c1,IC50,second compound 0.0316 µM,> 10000 nM
same,IC50,second compound 0.1 µM,9310 nM
same,IC50,second compound 0.316 µM,9220 nM
same,IC50,second compound 1 µM,> 10000 nM
same,IC50,second compound 3.16 µM,> 10000 nM
same,IC50,second compound 10 µM,7640 nM
same,"viability, T/C",[1],109%
same,"viability, T/C",[2],103%
same,"viability, T/C",[3],96.2%
same,"viability, T/C",[4],93.4%
same,"viability, T/C","second compound 0.0316 µM, first compound 3.16 µM",74.9%
same,"viability, T/C","second compound 0.0316 µM, first compound 10 µM",53.7%
same,"viability, T/C",[5],99.3%
same,"viability, T/C",[6],98.9%
same,"viability, T/C",[7],95%
same,"viability, T/C",[8],92.9%
same,"viability, T/C","second compound 0.1 µM, first compound 3.16 µM",79.4%
same,"viability, T/C","second compound 0.1 µM, first compound 10 µM",47.6%
same,"viability, T/C",[9],105%
same,"viability, T/C",[10],101%
same,"viability, T/C",[11],93.8%
same,"viability, T/C",[12],91.3%
same,"viability, T/C","second compound 0.316 µM, first compound 3.16 µM",77.4%
same,"viability, T/C","second compound 0.316 µM, first compound 10 µM",47.2%
same,"viability, T/C",[13],107%
same,"viability, T/C",[14],97.8%
same,"viability, T/C",[15],92.7%
same,"viability, T/C",[16],90.1%
same,"viability, T/C","second compound 1 µM, first compound 3.16 µM",81.2%
same,"viability, T/C","second compound 1 µM, first compound 10 µM",55.5%
same,"viability, T/C",[17],102%
same,"viability, T/C",[18],101%
same,"viability, T/C",[19],90.8%
same,"viability, T/C",[20],95.7%
same,"viability, T/C","second compound 3.16 µM, first compound 3.16 µM",68.7%
same,"viability, T/C","second compound 3.16 µM, first compound 10 µM",50.9%
same,"viability, T/C",[21],102%
same,"viability, T/C",[22],90.4%
same,"viability, T/C",[23],94.6%
same,"viability, T/C",[24],92.5%
same,"viability, T/C","second compound 10 µM, first compound 3.16 µM",69.7%
same,"viability, T/C","second compound 10 µM, first compound 10 µM",44%
COc1cccc(OCCCN)c1-c1cc(Nc2cnc(C#N)cn2)n[nH]1 + Cc1cccc(N(C)C(=O)C2C(O)CCN2c2nc(C)cc(C(F)(F)F)c2C#N)c1,IC50,second compound 0.0316 µM,5.14 nM
same,IC50,second compound 0.1 µM,5.54 nM
same,IC50,second compound 0.316 µM,5.35 nM
same,IC50,second compound 1 µM,3.49 nM
same,IC50,second compound 3.16 µM,4.87 nM
same,IC50,second compound 10 µM,< 3.16 nM
same,"viability, T/C",[25],80.6%
same,"viability, T/C",[26],8.11%
same,"viability, T/C",[1],6.8%
same,"viability, T/C",[2],5.31%
same,"viability, T/C",[3],4.65%
same,"viability, T/C",[4],4.03%
same,"viability, T/C",[27],89.8%
same,"viability, T/C",[28],8.11%
same,"viability, T/C",[5],6.65%
same,"viability, T/C",[6],5.48%
same,"viability, T/C",[7],6.82%
same,"viability, T/C",[8],4.61%
same,"viability, T/C",[29],84.1%
same,"viability, T/C",[30],9.52%
same,"viability, T/C",[9],6.22%
same,"viability, T/C",[10],5.29%
same,"viability, T/C",[11],5.08%
same,"viability, T/C",[12],4.86%
same,"viability, T/C",[31],53.9%
same,"viability, T/C",[32],8.32%
same,"viability, T/C",[13],6.96%
same,"viability, T/C",[14],6.49%
same,"viability, T/C",[15],5.31%
same,"viability, T/C",[16],4.98%
same,"viability, T/C",[33],70.3%
same,"viability, T/C",[34],16.3%
same,"viability, T/C",[17],7.33%
same,"viability, T/C",[18],5.44%
same,"viability, T/C",[19],6.24%
same,"viability, T/C",[20],4.93%
same,"viability, T/C",[35],48.1%
same,"viability, T/C",[36],11.5%
same,"viability, T/C",[21],7.44%
same,"viability, T/C",[22],5.3%
same,"viability, T/C",[23],6.55%
same,"viability, T/C",[24],4.1%
Cn1ncnc1[C@H]1c2n[nH]c(=O)c3cc(F)cc(c23)N[C@@H]1c1ccc(F)cc1 + Cc1cccc(N(C)C(=O)C2C(O)CCN2c2nc(C)cc(C(F)(F)F)c2C#N)c1,IC50,second compound 0.0316 µM,> 100 nM
same,IC50,second compound 0.1 µM,> 100 nM
same,IC50,second compound 0.316 µM,> 100 nM
same,IC50,second compound 1 µM,> 100 nM
same,IC50,second compound 3.16 µM,> 100 nM
same,IC50,second compound 10 µM,> 100 nM
same,"viability, T/C","second compound 0.0316 µM, first compound 0.000316 µM",110%
same,"viability, T/C","second compound 0.0316 µM, first compound 0.001 µM",102%
same,"viability, T/C",[25],100%
same,"viability, T/C",[26],107%
same,"viability, T/C",[1],104%
same,"viability, T/C",[2],87.3%
same,"viability, T/C","second compound 0.1 µM, first compound 0.000316 µM",103%
same,"viability, T/C","second compound 0.1 µM, first compound 0.001 µM",99.7%
same,"viability, T/C",[27],102%
same,"viability, T/C",[28],107%
same,"viability, T/C",[5],101%
same,"viability, T/C",[6],95.1%
same,"viability, T/C","second compound 0.316 µM, first compound 0.000316 µM",103%
same,"viability, T/C","second compound 0.316 µM, first compound 0.001 µM",97.8%
same,"viability, T/C",[29],102%
same,"viability, T/C",[30],102%
same,"viability, T/C",[9],102%
same,"viability, T/C",[10],96.2%
same,"viability, T/C","second compound 1 µM, first compound 0.000316 µM",109%
same,"viability, T/C","second compound 1 µM, first compound 0.001 µM",96.4%
same,"viability, T/C",[31],96.9%
same,"viability, T/C",[32],103%
same,"viability, T/C",[13],96%
same,"viability, T/C",[14],94.5%
same,"viability, T/C","second compound 3.16 µM, first compound 0.000316 µM",100%
same,"viability, T/C","second compound 3.16 µM, first compound 0.001 µM",98.7%
same,"viability, T/C",[33],101%
same,"viability, T/C",[34],99%
same,"viability, T/C",[17],102%
same,"viability, T/C",[18],91.3%
same,"viability, T/C","second compound 10 µM, first compound 0.000316 µM",103%
same,"viability, T/C","second compound 10 µM, first compound 0.001 µM",92.1%
same,"viability, T/C",[35],101%
same,"viability, T/C",[36],97.9%
same,"viability, T/C",[21],91.3%
same,"viability, T/C",[22],91.1%
